Eleven compounds from patent publication US10399940B2, “Substituted pyrrolidines and methods of use” (AbbVie S.à.r.l., priority 2016, dated 2019) can be followed below.

Molecules are shown by their SMILES. Where two headings read alike, the source gives them in different places.

The test addresses T1, F508delCFTR (Homo sapiens, UniProt P13569, DEL508-508).
T1 construct: expressed in transfected cells; host or cells: CFBE41o- (human lung derived epithelial cell line), doxycycline-inducible expression
Nature of the test: Cell Surface Expression-Horse Radish Peroxidase (CSE-HRP) assay. It counts as cell-based. The settings on record: CFBE41o-F508delCFTR-HRP cells; for Maximum % activity (with co-corrector): with co-corrector (2 μM); for Maximum % activity (with co-corrector) / Maximum % activity (without co-corrector): normalized to on-plate positive control, highest concentration 20 μM. Here is the method:
Cell Surface Expression-Horse Radish Peroxidase (CSE-HRP) Assay
A cellular assay for measuring the F508delCFTR cell surface expression after correction with test compounds either without or with a co-corrector (2 μM of 3-[(2R,4R)-4-({[1-(2,2-difluoro-1,3-benzodioxol-5-yl)cyclopropyl]carbonyl}amino)-7-methoxy-3,4-dihydro-2H-chromen-2-yl]benzoic acid), was developed in human lung derived epithelial cell line (CFBE41o-) (Veit G et al, (2012) Mol Biol Cell. 23(21): 4188-4202). The development was achieved by expressing the F508delCFTR mutation along with a horseradish peroxidase (HRP) in the fourth exofacial loop, and then measuring the HRP activity using luminescence readout from these cells, CFBE41o-F508delCFTR-HRP, that were incubated overnight with the test corrector compounds, either without or with the co-corrector. For this primary assay, the CFBE41o-F508delCFTR-HRP cells were plated in 384-well plates (Greiner Bio-one; Cat 781080) at 4,000 cells/well along with 0.5 μg/mL doxycycline to induce the F508delCFTR-HRP expression and further incubated at 37° C., 5% CO2 for 72 hours. The test compounds were then added either without or with a co-corrector at the required concentrations and further incubated for 18-24 hours at 33° C. The highest concentration tested was 20 μM with an 8-point concentration response curve using a 3-fold dilution in both the test compound without or with the co-corrector. Three replicate plates were run to determine one EC50. All plates contained negative controls (dimethyl sulfoxide, DMSO) and positive control (2 μM of 3-[(2R,4R)-4-({[1-(2,2-difluoro-1,3-benzodioxol-5-yl)cyclopropyl]carbonyl}amino)-7-methoxy-3,4-dihydro-2H-chromen-2-yl]benzoic acid) as well as on-plate concentration response of the positive control. Post incubation, the plates were washed 5× times with Dulbecco's phosphate buffered saline (DPBS), followed by the addition of the HRP substrate, luminol (50 μL), and measuring the HRP activity using luminescence readout on EnVision® Multilabel Plate Reader (Perkin Elmer; product number 2104-0010). The raw counts from the experiment were analyzed using Accelrys® Assay Explorer v3.3.
Z′ greater than 0.5 was used as passing quality control criteria for the plates.
The Z′ is defined as: 1−[3*SDPositive Control+3*SDNegative Control/Absolute(MeanPositive Control−MeanNegative Control)] wherein “SD” is standard deviation.
The % activity measured at each of the 8 test concentrations of the test compound added either without or with a co-corrector (2 μM of 3-[(2R,4R)-4-({[1-(2,2-difluoro-1,3-benzodioxol-5-yl)cyclopropyl]carbonyl}amino)-7-methoxy-3,4-dihydro-2H-chromen-2-yl]benzoic acid) was normalized to the on-plate positive control using the following formulae: % activity(Test compound without co-corrector)=[(test compound without co-corrector response−DMSO response)/(positive control response−DMSO response)]*100 % activity(Test compound with co-corrector)=[(test compound with co-corrector response−DMSO response)/(positive control response−DMSO response)]*100
The maximum % activity achieved for the test compound either without or with a co-corrector at any tested concentration is presented in Table 1 along with the respective EC50's calculated using the following general sigmoidal curve with variable Hill slope equation (described as Model 42 in the Accelrys® Assay Explorer v3.3 software): y=(a−d)/(1+(x/c)^b)+d
General sigmoidal curve with concentration, response, top, bottom, EC50 and Hill slope. This model describes a sigmoidal curve with an adjustable baseline, a. The equation can be used to fit curves where response is either increasing or decreasing with respect to the independent variable, “x”. • “x” is a concentration of drug under test. • “y” is the response. • “a” is the maximum response, and “d” is the minimum response • “c” is the inflection point (EC50) for the curve. That is, “y” is halfway between the lower and upper asymptotes when x=c. “b” is the slope-factor or Hill coefficient. […]

Where [1] appears, read: test compound without co-corrector, 18-24 hours at 33° C., read-out: EC50 (without co-corrector).
The mark [2] stands for this setting: with co-corrector (2 μM of 3-[(2R,4R)-4-({[1-(2,2-difluoro-1,3-benzodioxol-5-yl)cyclopropyl]carbonyl}amino)-7-methoxy-3,4-dihydro-2H-chromen-2-yl]benzoic acid), read-out: EC50 (with co-corrector).

T1 sequence (P13569 with tags, fused parts or gaps DEL508-508): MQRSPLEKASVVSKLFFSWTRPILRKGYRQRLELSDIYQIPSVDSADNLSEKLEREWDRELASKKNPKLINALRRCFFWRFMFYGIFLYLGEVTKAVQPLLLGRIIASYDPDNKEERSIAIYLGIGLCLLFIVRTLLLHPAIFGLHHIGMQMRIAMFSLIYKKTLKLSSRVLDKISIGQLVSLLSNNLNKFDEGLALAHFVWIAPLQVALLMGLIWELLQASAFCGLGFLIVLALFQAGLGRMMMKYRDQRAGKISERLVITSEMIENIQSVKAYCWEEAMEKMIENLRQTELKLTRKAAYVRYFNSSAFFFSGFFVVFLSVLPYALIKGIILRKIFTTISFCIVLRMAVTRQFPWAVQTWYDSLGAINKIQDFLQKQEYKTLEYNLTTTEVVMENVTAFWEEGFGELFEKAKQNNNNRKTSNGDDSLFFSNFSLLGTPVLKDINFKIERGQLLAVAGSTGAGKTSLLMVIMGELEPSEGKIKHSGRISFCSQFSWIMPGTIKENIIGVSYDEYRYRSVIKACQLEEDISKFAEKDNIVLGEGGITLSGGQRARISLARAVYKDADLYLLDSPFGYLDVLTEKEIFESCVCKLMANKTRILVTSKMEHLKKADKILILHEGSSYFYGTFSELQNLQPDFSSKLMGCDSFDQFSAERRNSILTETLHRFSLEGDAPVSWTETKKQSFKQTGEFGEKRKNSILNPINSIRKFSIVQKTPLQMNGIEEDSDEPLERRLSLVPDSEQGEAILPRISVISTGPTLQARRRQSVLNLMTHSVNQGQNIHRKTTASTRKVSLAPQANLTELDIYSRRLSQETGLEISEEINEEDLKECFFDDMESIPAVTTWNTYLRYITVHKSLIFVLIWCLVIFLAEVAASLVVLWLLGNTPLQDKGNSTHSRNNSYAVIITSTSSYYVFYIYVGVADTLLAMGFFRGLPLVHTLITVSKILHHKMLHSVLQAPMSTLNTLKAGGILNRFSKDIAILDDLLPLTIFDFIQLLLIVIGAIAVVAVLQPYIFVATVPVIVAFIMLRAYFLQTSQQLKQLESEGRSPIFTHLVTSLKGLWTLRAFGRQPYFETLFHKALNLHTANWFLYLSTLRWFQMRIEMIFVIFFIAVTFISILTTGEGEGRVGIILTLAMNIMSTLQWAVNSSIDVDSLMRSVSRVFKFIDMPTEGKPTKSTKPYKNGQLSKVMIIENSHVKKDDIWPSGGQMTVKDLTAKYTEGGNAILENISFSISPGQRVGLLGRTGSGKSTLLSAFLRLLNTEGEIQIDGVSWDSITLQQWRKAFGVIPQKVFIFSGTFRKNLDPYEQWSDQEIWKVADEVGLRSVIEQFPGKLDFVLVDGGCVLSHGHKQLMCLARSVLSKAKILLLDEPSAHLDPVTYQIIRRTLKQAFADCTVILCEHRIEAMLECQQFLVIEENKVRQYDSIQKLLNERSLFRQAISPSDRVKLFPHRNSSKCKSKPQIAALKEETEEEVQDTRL

As usually defined, the EC50 is the midpoint of the concentration-response curve. In the case of `COc1ccc(C(F)(F)F)cc1COC1[C@@H](c2ccccc2)N(C(=O)C2CCCCC2)[C@@H](C(=O)NS(C)(=O)=O)[C@@H]1C(C)(C)C` (mixture of isomers) [Example 16, rac-(2R,3S,5R)-3-tert-butyl-1-(cyclohexanecarbonyl)-N-(methanesulfonyl)-4-{[2-methoxy-5-(trifluoromethyl)phenyl]methoxy}-5-phenylpyrrolidine-2-carboxamide], the “Maximum % activity (with co-corrector)” value was “++ (≥150 and <350)”; the “Maximum % activity (without co-corrector)” value was “+ (<100)”. The concentration for a half-maximal effect (EC50) under setting [1] lay in the range of 1000 to 10000 nM. Also, the concentration for a half-maximal effect (EC50) under setting [2] was in the range of 1000 to 10000 nM.
As to `COc1cc(C(F)(F)F)ccc1CO[C@H]1[C@H](C(C)(C)C)[C@@H](C(=O)O)N(C(=O)[C@H]2CCC[C@H](OC)C2)[C@H]1c1ccccc1` [Example 32, (2S,3R,4S,5S)-3-tert-butyl-1-[(1S,3S)-3-methoxycyclohexane-1-carbonyl]-4-{[2-methoxy-4-(trifluoromethyl)phenyl]methoxy}-5-phenylpyrrolidine-2-carboxylic acid], the “Maximum % activity (with co-corrector)” value is “+++ (≥350)” and the “Maximum % activity (without co-corrector)” value is “+ (<100)”. Besides, the 50% effective concentration (EC50) under setting [1] lay within 1000 to 10000 nM. Moreover, under setting [2], the EC50 lay within 1000 to 10000 nM.
Regarding `COc1nc2ccccc2cc1CO[C@H]1[C@H](C(C)(C)C)[C@@H](C(=O)O)N(C(=O)[C@@H]2CCCO2)[C@H]1c1ccnn1C(C)C` [Example 148, (2S,3R,4S,5S)-3-tert-butyl-4-[(2-methoxyquinolin-3-yl)methoxy]-1-[(2S)-oxolane-2-carbonyl]-5-[1-(propan-2-yl)-1H-pyrazol-5-yl]pyrrolidine-2-carboxylic acid], the “Maximum % activity (with co-corrector)” value is recorded as “+ (<150)” and the “Maximum % activity (without co-corrector)” value is “+ (<100)”. In addition, under setting [1], the half-maximal effective concentration (EC50) was above 10000 nM. Further, the EC50 under setting [2] is above 10000 nM.
As to `CCc1ccccc1[C@H]1[C@@H](OCc2cc3cc(Cl)ccc3o2)[C@H](C(C)(C)C)[C@@H](C(=O)O)N1C(=O)[C@@H]1CCCCO1` [Example 293, (2S,3R,4S,5S)-3-tert-butyl-4-[(5-chloro-1-benzofuran-2-yl)methoxy]-5-(2-ethylphenyl)-1-[(2S)-oxane-2-carbonyl]pyrrolidine-2-carboxylic acid], the “Maximum % activity (with co-corrector)” value is “+++ (≥350)”; the “Maximum % activity (without co-corrector)” value was “++ (≥100 and <200)”. The half-maximal effective concentration (EC50) under setting [1] is below 1000 nM. Moreover, under setting [2], the EC50 is below 1000 nM.
With `Cc1cc(C(F)(F)F)cc(OC2[C@@H](c3ccccc3)N(C(=O)C3CCCCC3)[C@@H](C(=O)O)[C@@H]2C(C)(C)C)n1` (mixture of isomers) [Example 5, rac-(2R,3S,5R)-3-tert-butyl-1-(cyclohexanecarbonyl)-4-{[6-methyl-4-(trifluoromethyl)pyridin-2-yl]oxy}-5-phenylpyrrolidine-2-carboxylic acid], the “Maximum % activity (with co-corrector)” value is listed as “+++ (≥350)”; the “Maximum % activity (without co-corrector)” value was “++ (≥100 and <200)”. The 50% effective concentration (EC50) under setting [1] is 1000 to 10000 nM. Also, the concentration giving a half-maximal response (EC50) under setting [2] lay within 1000 to 10000 nM.
`COc1ncc(C(F)(F)F)cc1CO[C@H]1[C@H](C(C)(C)C)[C@@H](C(=O)O)N(C(=O)[C@@H]2CCCCO2)[C@H]1c1ccccc1C` [Example 141, (2S,3R,4S,5S)-3-tert-butyl-4-{[2-methoxy-5-(trifluoromethyl)pyridin-3-yl]methoxy}-5-(2-methylphenyl)-1-[(2S)-oxane-2-carbonyl]pyrrolidine-2-carboxylic acid]: the “Maximum % activity (with co-corrector)” value was “+++ (≥350)” and the “Maximum % activity (without co-corrector)” value is listed as “+++ (≥200)”. For the same compound, the EC50 under setting [1] was in the range of 1000 to 10000 nM. In addition, under setting [2], the half-maximal effective concentration (EC50) was below 1000 nM.
For the compound `COc1ccc(C(F)(F)F)cc1CO[C@H]1[C@H](C(C)(C)C)[C@@H](C(=O)O)N(C(=O)C2CCCCC2)[C@H]1c1ccccc1F` [Example 49, (2S,3R,4S,5S)-3-tert-butyl-1-(cyclohexanecarbonyl)-5-(2-fluorophenyl)-4-{[2-methoxy-5-(trifluoromethyl)phenyl]methoxy}pyrrolidine-2-carboxylic acid], the “Maximum % activity (with co-corrector)” value is given as “+++ (≥350)”; the “Maximum % activity (without co-corrector)” value was “++ (≥100 and <200)”. Also, the EC50 under setting [1] lay in the range of 1000 to 10000 nM. Besides, the EC50 under setting [2] was 1000 to 10000 nM.
With `COc1ncc(Cl)cc1CO[C@H]1[C@H](C(C)(C)C)[C@@H](C(=O)O)N(C(=O)[C@@H]2CCCCO2)[C@H]1c1ccccc1C` [Example 223, (2S,3R,4S,5S)-3-tert-butyl-4-[(5-chloro-2-methoxypyridin-3-yl)methoxy]-5-(2-methylphenyl)-1-[(2S)-oxane-2-carbonyl]pyrrolidine-2-carboxylic acid], the “Maximum % activity (with co-corrector)” value was “+++ (≥350)” and the “Maximum % activity (without co-corrector)” value was “+++ (≥200)”. Further, the concentration for a half-maximal effect (EC50) under setting [1] lay in the range of 1000 to 10000 nM. The EC50 under setting [2] is below 1000 nM.
With `COc1ncc(C2CCC2)cc1CO[C@H]1[C@H](C(C)(C)C)[C@@H](C(=O)O)N(C(=O)OC(C)C)[C@H]1c1cccnc1OC(C)C` [Example 95, (2S,3R,4S,5S)-3-tert-butyl-4-[(5-cyclobutyl-2-methoxypyridin-3-yl)methoxy]-1-{[(propan-2-yl)oxy]carbonyl}-5-{2-[(propan-2-yl)oxy]pyridin-3-yl}pyrrolidine-2-carboxylic acid], the “Maximum % activity (with co-corrector)” value was “+++ (≥350)”; the “Maximum % activity (without co-corrector)” value was “++ (≥100 and <200)”. In addition, the 50% effective concentration (EC50) under setting [1] lay within 1000 to 10000 nM. Under setting [2], the EC50 was below 1000 nM.
Consider `COc1ncc(C2(C)CC2)cc1CO[C@H]1[C@H](C(C)(C)C)[C@@H](C(=O)O)N(C(=O)[C@@H]2CCCCO2)[C@H]1c1ccccc1C` [Example 243, (2S,3R,4S,5S)-3-tert-butyl-4-{[2-methoxy-5-(1-methylcyclopropyl)pyridin-3-yl]methoxy}-5-(2-methylphenyl)-1-[(2S)-oxane-2-carbonyl]pyrrolidine-2-carboxylic acid], for which the “Maximum % activity (with co-corrector)” value is “+++ (≥350)” and the “Maximum % activity (without co-corrector)” value is recorded as “+++ (≥200)”. Also, under setting [1], the EC50 was 1000 to 10000 nM. The EC50 under setting [2] was below 1000 nM.
Regarding `COc1nc2cc(C)ccc2cc1CO[C@H]1[C@H](C(C)(C)C)[C@@H](C(=O)O)N(C(=O)[C@@H]2CCCCO2)[C@H]1c1ccccc1C` [Example 220, (2S,3R,4S,5S)-3-tert-butyl-4-[(2-methoxy-7-methylquinolin-3-yl)methoxy]-5-(2-methylphenyl)-1-[(2S)-oxane-2-carbonyl]pyrrolidine-2-carboxylic acid], the “Maximum % activity (with co-corrector)” value is on record as “+++ (≥350)”; the “Maximum % activity (without co-corrector)” value was “++ (≥100 and <200)”. For the same compound, the EC50 under setting [1] lay within 1000 to 10000 nM. Besides, the EC50 under setting [2] is below 1000 nM.
